# According to patent US20140187594A1, “DIPHENYL ETHER COMPOUNDS FOR THE TREATMENT OF LIVER, LUNG DISORDERS, DIABETIC COMPLICATIONS AND CARDIOVASCULAR DISEASES” (ORCHID CHEMICALS AND PHARMACEUTICALS LTD, priority 2010, published 2014):
# “Also recorded” adds a separate entry of the source.
# How the values were obtained:
# TNF-α = experiment: LPS induced TNF-α level in NAFLD/NASH mice; format: in vivo; conditions: 100 mg/kg orally 28 days, LPS 500 μg/animal i.p., FIG. 28
# Source text: To develop NAFLD/NASH model, the same protocol was followed as mentioned in Experiment-2. After induction, animals were further grouped as follows. Animals fed normal chow diet (n=10) served as a normal control (Group I) and animals fed HFD and HFL were further divided into two groups as disease control (Group II) (n=10) and treatment group (Group III) (n=9). Duration of the treatment was 28 days. During this period Group I and Group II animals were received water as vehicle and Group III animals were treated with compound of formula (A) 100 mg/kg orally. On 27th day, animals were kept for 12 hours fasting and on 28th day, after 60 minutes of treatment, animals were challenged with LPS (500 μg/animal) by intraperitoneal route. Then after 90 minutes of LPS challenge, blood collection was carried out, plasma and serum were separated and stored at −80° C. in deep freezer for further analysis. Following blood collection, animals were sacrificed; liver, inguinal and epididymal fats were collected and weighed.
# (§1) The parameters like Glucose, ALT, AST, TC, TG (Clinical chemistry analyzer Erba XL 300), insulin (Linco®-CA, Product code: EZRMI-13K) and TNFα (GE Healthcare, Amersham, UK. Product code: RPN2718) were measured using commercially available kits. NEFA was measured in serum using commercially available NEFA C kit (Product code No: 279-75401, Wako pure chemical industries ltd., Japan).
# NAFLD/NASH mice = experiment: Supranutritional diet induced NAFLD/NASH (and DIO/NAFLD) models; format: in vivo, C57BL/6 mice
# Method: A rodent obese and NAFLD model was developed by feeding supranutritional diet, which simulates several features of human obesity and NAFLD. These features were treated as mentioned below. […] C57BL/6 male mice aged at 6-8 weeks, body weight ranges between 16-22 g were used for this study. Animals were divided into two groups. First group (n=8, where n refers to number of animals) was treated as a normal control fed with chow feed (Nutri Lab® Rodent, Tetragon Chemie Pvt. Ltd., Bangalore) and the second group (n=20) was treated with 60 Kcal % high fat diet (HFD) (Research Diets, New Brunswick, N.J., Cat# D12492 with blue dye) for 90 days. Animals were selected based on their body weight. The Animals fed with normal chow diet (n=8) served as normal control (Group I) and animals fed with HFD were divided into two groups as DIO/NAFLD control (Group II) (n=10), and Group III (n=9) treated with compound formula (A) at 100 mg/kg for 28 days. During this period, animal body weight and feed intake was recorded daily.
# A rodent NAFLD/NASH model was developed by feeding supranutritional diet which simulates several features of human NAFLD/NASH. These features were treated as mentioned below. Fifty C57BL/6 male mice aged 6-8 weeks, and body weight ranges between 16-36 g were used for this study. Animals were divided into two groups, first group (n=10) treated as a normal control, was fed with chow feed (Nutri Lab® Rodent, Tetragon Chemie Pvt. Ltd., Bangalore) and the second group (n=40) fed with 60 Kcal % HFD (Research Diets, New Brunswick, N.J., Cat# D12492 with blue dye) and 40% high fructose liquid (HFL) for 60 days. After 45 days, two animals from disease induction and normal control groups were sacrificed; liver histopathology examination was carried out to confirm the induction of NAFLD/NASH. Animals fed with normal chow diet served as a normal control (Group I) and animals fed HFD and HFL were divided into three groups (n=6-8) as NAFLD/NASH control (Group II), Group III and Group IV were dosed with compound of formula (A) and Metformin at 100 and 350 mg/kg p.o respectively for 28 days. On 28th day, animals were kept 12 hours fasting and 29th day blood was collected, plasma separated and used for biochemical and compound concentration analysis. The animals were then sacrificed. Liver was collected and weighed. Liver tissues were used for compound concentration analysis, triglycerides estimation and histopathology examination. Gross pathology of liver was also observed. Experiment-3: Effect of Compound of formula (A) in NAFLD/NASH mice
# The experiment-2 protocol was followed. There compound of formula (A) was compared with other antidiabetic compounds (Figures-8-13).
# To develop NAFLD/NASH model, the same protocol was followed as mentioned in Experiment-2. At the end of induction period the animals were grouped as follows. Animals fed with normal chow diet (n=9) served as Normal control (Group 1) and animals fed HFD and HFL were divided into four groups (n=9-12) as NAFLD/NASH control (Group II), Groups III, IV, and V were treated with compound of formula (A) at 10, 30 and 100 mg/kg p.o. respectively for 28 days. After 28 days of treatment animals were kept for 12 hours fasting and blood was collected for biochemical estimations. Following blood collection, animals were sacrificed, liver was collected and weighed. Liver tissues were used for compound concentration analysis, TG estimation and histopathological examination. Gross pathology of liver was also observed. […]
# [1] = tested on: acute alcohol induced hypertriglyceridemic mice; experiment: Acute alcohol induced hypertriglyceridemia; format: in vivo, C57BL/6 mice; conditions: (A) 100 mg/kg, disodium salt of (C) 30 mg/kg p.o., seven days, 40% alcohol challenge; FIG. 33
# Method: Male C57BL/6 mice aged 6-8 weeks, and body weight ranges between 22-28 g were used for this study. Animals were divided into four groups (n=8) and fed normal chow feed (Nutri Lab® Rodent, Tetragon Chemie Pvt. Ltd., Bangalore) and drinking water. The Group I and Group II animals were served as a normal and disease control treated with vehicle. Group III (n=8) and Group IV (n=8) animals were treated with compound of formula (A) and disodium salts of compound of formula (C) at 100 and 30 mg/kg p.o respectively for seven days. On 7th day one hour post administration of compounds Group II, Group III and Group IV animals were challenged with 40% alcohol (10 ml/kg b.w) p.o. Eighteen hours post challenge animals were bled, plasma separated and used for biochemical parameter analysis.
# as §1
smiles,measurement,setting,value
"COC(=O)[C@@H](N)Cc1ccc(Oc2ccc(CC3SC(=O)NC3=O)cc2)cc1 (stereo partly drawn) [Compound of formula (A), Methyl(2S)-2-amino-3-(4-{4-[(2,4-dioxo-1,3-thiazolidin-5-yl)methyl]phenoxy}phenyl)propanoate]",TNF-α levels,TNF-α,reduction
same,liver histopathology (Hepatic steatosis),"NAFLD/NASH mice; (A) up to 100 mg/kg, disodium salt of (C) 30 mg/kg p.o., 28 days, FIGS. 6, 7, 12, 13, 19, 20, 21, 24, 25, 30, 31 & 32",reduction; also recorded: improvement in liver histopathology
same,plasma AST,"NAFLD/NASH mice; vs untreated disease control, FIG. 17",reduction
same,body weight,"NAFLD/NASH mice; vs untreated disease control, FIGS. 1, 2, 8, 16 & 23",reduction in body weight
same,glucose (fasted),"NAFLD/NASH mice; vs untreated disease control, FIGS. 5 & 9",reduction
same,plasma ALT,"NAFLD/NASH mice; vs untreated disease control, FIGS. 10 & 18",reduction
same,plasma TG,[1],significant reduction in TG
